From patent US20220273571A1, “COMPOSITIONS OF PROBIOTICS AND BIOMASS AND METHODS FOR PROMOTING HEALTH IN A SUBJECT” (Commonwealth Scientific and Industrial Research Organisation, priority 2019, published 2022)

Key:
[1] = system: Veillonellaceae (Veillonella dispar); test: In vitro colonic fermentation, 16S rRNA bacterial population analysis; type: cell-based; settings: 24 h fermented samples versus Time 0 samples
[2] = pH of formulations in fermentation media before pH adjustment; type: physicochemical; settings: 150 mg dried formulation in 10 mL fermentation media, before standardizing the starting pH at 6.8
[3] = system: faecal slurries (gut microbiota); test: In vitro colonic batch fermentation, pH value; settings: batch fermentation with faecal slurry, 37° C., starting pH adjusted
[4] = system: Lactobacillaceae (Lactobacillus reuteri); test: In vitro colonic fermentation, 16S rRNA bacterial population analysis; type: cell-based; settings: 24 h fermented samples versus Time 0 samples
[5] = system: Ruminococcaceae (Ruminococcus); test: as above; type: cell-based; settings: 24 h fermented samples versus Time 0 samples
[6] = system: Bacteroidaceae (Bacteroides); test: as above; type: cell-based; settings: 24 h fermented samples versus Time 0 samples
[7] = system: Paraprevotellaceae (Paraprevotella); test: as above; type: cell-based; settings: 24 h fermented samples versus Time 0 samples
[8] = system: Lachnospiraceae (Coprococcus); test: as above; type: cell-based; settings: 24 h fermented samples versus Time 0 samples
[9] = system: Veillonellaceae (Dialister); test: as above; type: cell-based; settings: 24 h fermented samples versus Time 0 samples
Ruminococcaceae = test: as above; type: cell-based; settings: 24 h fermented samples versus Time 0 samples
[10] = system: Coriobacteriaceae (Collinsella aerofaciens); test: as above; type: cell-based; settings: 24 h fermented samples versus Time 0 samples
[11] = system: Ruminococcaceae (Oscillospira); test: as above; type: cell-based; settings: 24 h fermented samples versus Time 0 samples
[12] = system: Clostridiaceae (Clostridium perfringens); type: cell-based; settings: 24 h fermented samples versus Time 0 samples
[13] = system: Ruminococcaceae (Faecalibacterium prausnitzii); test: In vitro colonic fermentation, 16S rRNA bacterial population analysis; type: cell-based; settings: 24 h fermented samples versus Time 0 samples
[14] = system: Lachnospiraceae (Lachnospira); test: as above; type: cell-based; settings: 24 h fermented samples versus Time 0 samples
[15] = system: Bacillaceae (Bacillus coagulans); test: as above; type: cell-based; settings: 24 h fermented samples versus Time 0 samples
[16] = system: Lachnospiraceae (Blautia); test: as above; type: cell-based; settings: 24 h fermented samples versus Time 0 samples
[17] = system: Enterobacteriaceae (Trabulsiella); test: as above; type: cell-based; settings: 24 h fermented samples versus Time 0 samples
Erysipelotrichaceae = test: as above; type: cell-based; settings: 24 h fermented samples versus Time 0 samples
[18] = system: faecal slurries (gut microbiota); test: In vitro colonic fermentation, SCFA analysis by gas chromatography; settings: 24 hrs fermentation, result in words (FIG. 2, FIG. 3)
[19] = system: Porphyromonadaceae (Parabacteroides distasonis); test: In vitro colonic fermentation, 16S rRNA bacterial population analysis; type: cell-based; settings: 24 h fermented samples versus Time 0 samples
[20] = system: Lachnospiraceae (Dorea formicigenerans); test: as above; type: cell-based; settings: 24 h fermented samples versus Time 0 samples
[21] = system: Lachnospiraceae (Roseburia faecis); test: as above; type: cell-based; settings: 24 h fermented samples versus Time 0 samples

For `O=C(O[C@@H]1Cc2c(O)cc(O)cc2O[C@@H]1c1cc(O)c(O)c(O)c1)c1cc(O)c(O)c(O)c1` [EGCG, Epigallocatechin gallate], the “Log2 fold change of percentage abundance, Veillonellaceae (Veillonella dispar)” value [1] was −0.58 Log2 fold change, the pH [2] was 7.16 and the “pH at 24 hrs” value [3] was 6.46 ± 0.05. For the same compound, the “Log2 fold change of percentage abundance, Lactobacillaceae (Lactobacillus reuteri)” value [4] was −0.37 Log2 fold change, the “Log2 fold change of percentage abundance, Ruminococcaceae (Ruminococcus)” value [5] was −1.35 Log2 fold change and the “Log2 fold change of percentage abundance, Bacteroidaceae (Bacteroides)” value [6] was −0.13 Log2 fold change. For the same compound, the “Log2 fold change of percentage abundance, Paraprevotellaceae (Paraprevotella)” value [7] was 0.46 Log2 fold change, the “Log2 fold change of percentage abundance, Lachnospiraceae (Coprococcus)” value [8] was −0.22 Log2 fold change and the “Log2 fold change of percentage abundance, Veillonellaceae (Dialister)” value [9] was −0.32 Log2 fold change. The “Log2 fold change of percentage abundance, Ruminococcaceae” value (Ruminococcaceae) was −0.57 Log2 fold change, the “Log2 fold change of percentage abundance, Coriobacteriaceae (Collinsella aerofaciens)” value [10] was −0.81 Log2 fold change and the “Log2 fold change of percentage abundance, Ruminococcaceae (Oscillospira)” value [11] was −0.31 Log2 fold change. The “Log2 fold change of percentage abundance, Clostridiaceae (Clostridium perfringens)” value [12] was −0.79 Log2 fold change, the “Log2 fold change of percentage abundance, Ruminococcaceae (Faecalibacterium prausnitzii)” value [13] was −0.81 Log2 fold change and the “Log2 fold change of percentage abundance, Lachnospiraceae (Lachnospira)” value [14] was −0.28 Log2 fold change. The “Log2 fold change of percentage abundance, Bacillaceae (Bacillus coagulans)” value [15] was −1.94 Log2 fold change, the “Log2 fold change of percentage abundance, Lachnospiraceae (Blautia)” value [16] was −1.39 Log2 fold change and the “Log2 fold change of percentage abundance, Enterobacteriaceae (Trabulsiella)” value [17] was 0.58 Log2 fold change. For the same compound, the “Log2 fold change of percentage abundance, Erysipelotrichaceae” value (Erysipelotrichaceae) was −1.30 Log2 fold change, the “total and individual SCFA production during fermentation” value [18] was “significantly inhibited” and the “Log2 fold change of percentage abundance, Porphyromonadaceae (Parabacteroides distasonis)” value [19] was 0.27 Log2 fold change. For the same compound, the “Log2 fold change of percentage abundance, Lachnospiraceae (Dorea formicigenerans)” value [20] was −1.47 Log2 fold change and the “Log2 fold change of percentage abundance, Lachnospiraceae (Roseburia faecis)” value [21] was −0.11 Log2 fold change.
